Assay results taken from BindingDB's records for doi:10.1021/jm00046a026 (Virginia Commonwealth University, 1994).
pKi: −log10 of the molar value.

Assay: Inhibition against delta receptor from displacement studies using 1.5 nM [3H]DPDPE in rhesus monkey cortex membrane

`CCCCCCN1CC[C@]2(C)c3cc(O)ccc3CC1[C@@H]2C` [(6S,11R)-3-Hexyl-6,11-dimethyl-1,2,3,4,5,6-hexahydro-2,6-methano-benzo[d]azocin-8-ol] and `CCCCCCCN1CC[C@]2(C)c3cc(O)ccc3CC1[C@@H]2C` [(6S,11R)-3-Heptyl-6,11-dimethyl-1,2,3,4,5,6-hexahydro-2,6-methano-benzo[d]azocin-8-ol] are within 0.2 log units of each other in pKi: 7.17 for the first, 7.24 for the second.

First: CCCCCN1CC[C@]2(C)c3cc(O)ccc3CC1[C@@H]2C [(6S,11R)-6,11-Dimethyl-3-pentyl-1,2,3,4,5,6-hexahydro-2,6-methano-benzo[d]azocin-8-ol]
Second: CCCCN1CC[C@@]2(C)c3cc(O)ccc3CC1[C@H]2C [(6R,11S)-3-Butyl-6,11-dimethyl-1,2,3,4,5,6-hexahydro-2,6-methano-benzo[d]azocin-8-ol]
The pKi of the first is 1.86 log units higher: 7.01 for the first, 5.15 for the second. The first binds more tightly here.

First: CCCN1CC[C@]2(C)c3cc(O)ccc3CC1[C@@H]2C [(6S,11R)-6,11-Dimethyl-3-propyl-1,2,3,4,5,6-hexahydro-2,6-methano-benzo[d]azocin-8-ol]
Second: CCCCN1CC[C@]2(C)c3cc(O)ccc3CC1[C@@H]2C [(6S,11R)-3-Butyl-6,11-dimethyl-1,2,3,4,5,6-hexahydro-2,6-methano-benzo[d]azocin-8-ol]
The pKi of the first is 0.32 log units higher: 7.43 for the first, 7.11 for the second. The first binds more tightly here.

Compared with `CCCCCCCCN1CC[C@]2(C)c3cc(O)ccc3CC1[C@@H]2C` [(6S,11R)-6,11-Dimethyl-3-octyl-1,2,3,4,5,6-hexahydro-2,6-methano-benzo[d]azocin-8-ol], `CCCCCCCCN1CC[C@]2(C)c3cc(O)ccc3CC1[C@H]2C` [(6S,11S)-6,11-Dimethyl-3-octyl-1,2,3,4,5,6-hexahydro-2,6-methano-benzo[d]azocin-8-ol] is 1.14 log units lower in pKi: 6.94 for the first, 5.80 for the second.

Compared with `C[C@H]1C2Cc3ccc(O)cc3[C@@]1(C)CCN2C` [(6S,11R)-3,6,11-Trimethyl-1,2,3,4,5,6-hexahydro-2,6-methano-benzo[d]azocin-8-ol], `CCCCCCCCCN1CC[C@]2(C)c3cc(O)ccc3CC1[C@H]2C` [(6S,11S)-6,11-Dimethyl-3-nonyl-1,2,3,4,5,6-hexahydro-2,6-methano-benzo[d]azocin-8-ol] is 1.29 log units lower in pKi: 6.82 for the first, 5.53 for the second. The first binds more tightly here.

Compound `CCCCCCCCCCN1CC[C@]2(C)c3cc(O)ccc3CC1[C@@H]2C` [(6S,11R)-3-Decyl-6,11-dimethyl-1,2,3,4,5,6-hexahydro-2,6-methano-benzo[d]azocin-8-ol] has a pKi of 5.59.

Assay: Inhibition against kappa receptor from displacement studies using 1.5 nM [3H]U-69593 in rhesus monkey cortex membrane

`CCCCCCN1CC[C@]2(C)c3cc(O)ccc3CC1[C@@H]2C` [(6S,11R)-3-Hexyl-6,11-dimethyl-1,2,3,4,5,6-hexahydro-2,6-methano-benzo[d]azocin-8-ol] and `CCCCCCCN1CC[C@]2(C)c3cc(O)ccc3CC1[C@@H]2C` [(6S,11R)-3-Heptyl-6,11-dimethyl-1,2,3,4,5,6-hexahydro-2,6-methano-benzo[d]azocin-8-ol] are within 0.2 log units of each other in pKi: 7.37 for the first, 7.49 for the second.

Going from `CCCCCN1CC[C@]2(C)c3cc(O)ccc3CC1[C@@H]2C` [(6S,11R)-6,11-Dimethyl-3-pentyl-1,2,3,4,5,6-hexahydro-2,6-methano-benzo[d]azocin-8-ol] to `CCCCN1CC[C@@]2(C)c3cc(O)ccc3CC1[C@H]2C` [(6R,11S)-3-Butyl-6,11-dimethyl-1,2,3,4,5,6-hexahydro-2,6-methano-benzo[d]azocin-8-ol], the pKi falls from 7.64 to 6.11 (1.53 log units).

First: CCCN1CC[C@]2(C)c3cc(O)ccc3CC1[C@@H]2C [(6S,11R)-6,11-Dimethyl-3-propyl-1,2,3,4,5,6-hexahydro-2,6-methano-benzo[d]azocin-8-ol]
Second: CCCCN1CC[C@]2(C)c3cc(O)ccc3CC1[C@@H]2C [(6S,11R)-3-Butyl-6,11-dimethyl-1,2,3,4,5,6-hexahydro-2,6-methano-benzo[d]azocin-8-ol]
The pKi of the first is 0.39 log units higher: 8.70 for the first, 8.31 for the second. The first binds more tightly here.

First: CCCCCCCCN1CC[C@]2(C)c3cc(O)ccc3CC1[C@@H]2C [(6S,11R)-6,11-Dimethyl-3-octyl-1,2,3,4,5,6-hexahydro-2,6-methano-benzo[d]azocin-8-ol]
Second: CCCCCCCCN1CC[C@]2(C)c3cc(O)ccc3CC1[C@H]2C [(6S,11S)-6,11-Dimethyl-3-octyl-1,2,3,4,5,6-hexahydro-2,6-methano-benzo[d]azocin-8-ol]
The pKi of the first is 1.47 log units higher: 7.11 for the first, 5.64 for the second.

First: C[C@H]1C2Cc3ccc(O)cc3[C@@]1(C)CCN2C [(6S,11R)-3,6,11-Trimethyl-1,2,3,4,5,6-hexahydro-2,6-methano-benzo[d]azocin-8-ol]
Second: CCCCCCCCCN1CC[C@]2(C)c3cc(O)ccc3CC1[C@H]2C [(6S,11S)-6,11-Dimethyl-3-nonyl-1,2,3,4,5,6-hexahydro-2,6-methano-benzo[d]azocin-8-ol]
The pKi of the first is 2.13 log units higher: 7.77 for the first, 5.64 for the second.

With `CCCCCCCCCCN1CC[C@]2(C)c3cc(O)ccc3CC1[C@@H]2C` [(6S,11R)-3-Decyl-6,11-dimethyl-1,2,3,4,5,6-hexahydro-2,6-methano-benzo[d]azocin-8-ol] the pKi was 5.64.

Assay: Inhibition against mu receptor from displacement studies using 0.5 nM [3H]-DAMGO in rhesus monkey cortex membrane

`CCCCCCN1CC[C@]2(C)c3cc(O)ccc3CC1[C@@H]2C` [(6S,11R)-3-Hexyl-6,11-dimethyl-1,2,3,4,5,6-hexahydro-2,6-methano-benzo[d]azocin-8-ol] and `CCCCCCCN1CC[C@]2(C)c3cc(O)ccc3CC1[C@@H]2C` [(6S,11R)-3-Heptyl-6,11-dimethyl-1,2,3,4,5,6-hexahydro-2,6-methano-benzo[d]azocin-8-ol] are within 0.2 log units of each other in pKi: 7.41 for the first, 7.57 for the second.

First: CCCCCN1CC[C@]2(C)c3cc(O)ccc3CC1[C@@H]2C [(6S,11R)-6,11-Dimethyl-3-pentyl-1,2,3,4,5,6-hexahydro-2,6-methano-benzo[d]azocin-8-ol]
Second: CCCCN1CC[C@@]2(C)c3cc(O)ccc3CC1[C@H]2C [(6R,11S)-3-Butyl-6,11-dimethyl-1,2,3,4,5,6-hexahydro-2,6-methano-benzo[d]azocin-8-ol]
The pKi of the first is 1.91 log units higher: 7.82 for the first, 5.91 for the second. The first binds more tightly here.

First: CCCN1CC[C@]2(C)c3cc(O)ccc3CC1[C@@H]2C [(6S,11R)-6,11-Dimethyl-3-propyl-1,2,3,4,5,6-hexahydro-2,6-methano-benzo[d]azocin-8-ol]
Second: CCCCN1CC[C@]2(C)c3cc(O)ccc3CC1[C@@H]2C [(6S,11R)-3-Butyl-6,11-dimethyl-1,2,3,4,5,6-hexahydro-2,6-methano-benzo[d]azocin-8-ol]
The pKi of the first is 0.35 log units higher: 8.82 for the first, 8.47 for the second.

First: CCCCCCCCN1CC[C@]2(C)c3cc(O)ccc3CC1[C@@H]2C [(6S,11R)-6,11-Dimethyl-3-octyl-1,2,3,4,5,6-hexahydro-2,6-methano-benzo[d]azocin-8-ol]
Second: CCCCCCCCN1CC[C@]2(C)c3cc(O)ccc3CC1[C@H]2C [(6S,11S)-6,11-Dimethyl-3-octyl-1,2,3,4,5,6-hexahydro-2,6-methano-benzo[d]azocin-8-ol]
The pKi of the first is 0.43 log units higher: 7.23 for the first, 6.80 for the second.

Going from `C[C@H]1C2Cc3ccc(O)cc3[C@@]1(C)CCN2C` [(6S,11R)-3,6,11-Trimethyl-1,2,3,4,5,6-hexahydro-2,6-methano-benzo[d]azocin-8-ol] to `CCCCCCCCCN1CC[C@]2(C)c3cc(O)ccc3CC1[C@H]2C` [(6S,11S)-6,11-Dimethyl-3-nonyl-1,2,3,4,5,6-hexahydro-2,6-methano-benzo[d]azocin-8-ol], the pKi falls from 8.38 to 6.90 (1.48 log units). The first binds more tightly here.

For `CCCCCCCCCCN1CC[C@]2(C)c3cc(O)ccc3CC1[C@@H]2C` [(6S,11R)-3-Decyl-6,11-dimethyl-1,2,3,4,5,6-hexahydro-2,6-methano-benzo[d]azocin-8-ol], the pKi was 6.00.

Assay: Inhibition against sigma receptor using displacement of 3 nM [3H]pentazocine in homogenate of guinea pig brain cerebellum

`CCCCCCN1CC[C@]2(C)c3cc(O)ccc3CC1[C@@H]2C` [(6S,11R)-3-Hexyl-6,11-dimethyl-1,2,3,4,5,6-hexahydro-2,6-methano-benzo[d]azocin-8-ol] and `CCCCCCCN1CC[C@]2(C)c3cc(O)ccc3CC1[C@@H]2C` [(6S,11R)-3-Heptyl-6,11-dimethyl-1,2,3,4,5,6-hexahydro-2,6-methano-benzo[d]azocin-8-ol] are within 0.2 log units of each other in pKi: 7.40 for the first, 7.31 for the second.

Compared with `CCCN1CC[C@]2(C)c3cc(O)ccc3CC1[C@@H]2C` [(6S,11R)-6,11-Dimethyl-3-propyl-1,2,3,4,5,6-hexahydro-2,6-methano-benzo[d]azocin-8-ol], `CCCCN1CC[C@@]2(C)c3cc(O)ccc3CC1[C@H]2C` [(6R,11S)-3-Butyl-6,11-dimethyl-1,2,3,4,5,6-hexahydro-2,6-methano-benzo[d]azocin-8-ol] is 2.09 log units higher in pKi: 6.13 for the first, 8.22 for the second.

Going from `CCCCCCCCN1CC[C@]2(C)c3cc(O)ccc3CC1[C@@H]2C` [(6S,11R)-6,11-Dimethyl-3-octyl-1,2,3,4,5,6-hexahydro-2,6-methano-benzo[d]azocin-8-ol] to `CCCCCCCCN1CC[C@]2(C)c3cc(O)ccc3CC1[C@H]2C` [(6S,11S)-6,11-Dimethyl-3-octyl-1,2,3,4,5,6-hexahydro-2,6-methano-benzo[d]azocin-8-ol], the pKi rises from 7.46 to 8.55 (1.09 log units).

Compared with `C[C@H]1C2Cc3ccc(O)cc3[C@@]1(C)CCN2C` [(6S,11R)-3,6,11-Trimethyl-1,2,3,4,5,6-hexahydro-2,6-methano-benzo[d]azocin-8-ol], `CCCCN1CC[C@]2(C)c3cc(O)ccc3CC1[C@@H]2C` [(6S,11R)-3-Butyl-6,11-dimethyl-1,2,3,4,5,6-hexahydro-2,6-methano-benzo[d]azocin-8-ol] is 2.24 log units higher in pKi: 4.74 for the first, 6.98 for the second. The second binds more tightly here.

Going from `CCCCCCCCCN1CC[C@]2(C)c3cc(O)ccc3CC1[C@H]2C` [(6S,11S)-6,11-Dimethyl-3-nonyl-1,2,3,4,5,6-hexahydro-2,6-methano-benzo[d]azocin-8-ol] to `CCCCCCCCCCN1CC[C@]2(C)c3cc(O)ccc3CC1[C@@H]2C` [(6S,11R)-3-Decyl-6,11-dimethyl-1,2,3,4,5,6-hexahydro-2,6-methano-benzo[d]azocin-8-ol], the pKi falls from 7.92 to 7.42 (0.50 log units).
